Data reported in paper PMC7590976, “Detection of Active Granzyme A in NK92 Cells with Fluorescent Activity-Based Probe” (Journal of Medicinal Chemistry, 2020).
Where “and” joins values, the source holds several entries; their conditions need not be identical. Equal values may be shown once. Non-standard residues stand in square brackets, D forms with d. *: point of attachment. Oic = O=C(O)[C@@H]1C[C@@H]2CCCC[C@@H]2N1; ACC = NC(=O)Cc1cc(=O)oc2cc(N*)ccc12

Tests used:
[1] = molecular target: T1, GrB (Homo sapiens, UniProt P10144); experiment: GrA substrate selectivity testing on GrB; assay type: biochemical; conditions: substrate 200 μM (Fig 3A) or 67 μM, 18 nM GrB
T1 construct: made in house; host or cells: Pichia pastoris
Excerpt: Since GrA and GrK are the most structurally similar Grs, they may recognize and hydrolyze the same natural and synthetic substrates. Therefore, we tested whether our new GrA substrates are also recognized by GrK or GrB (Figure 3A). For this experiment, we screened substrates SK8 to SK28 and a GrKref substrate (Ac-Tyr-Arg-Phe-Lys-ACC) or GrBref substrate (Ac-Ile-Glu-Pro-Asp-ACC) at the same concentration using a plate reader, and we monitored the increase in fluorescence over time. The linear portions of the diagram were analyzed, and as we expected, the majority of the substrates were well recognized by GrK, even better than their recognition by GrA. […] Based on that, we concluded that Tic-Gly-Oic-Arg is a leading sequence for a specific potent inhibitor and ABP for GrA.
Figure 3 (A) GrA substrate selectivity testing on GrK and GrB. Substrates SK8–SK28 and the reference GrK and GrB substrates were placed in a 96-well plate at a concentration of 200 μM and treated with GrK or GrB. […] Data present the average of 2 replicates as adjusted RFU/s.
Figure S2. Selectivity of SK15 substrate toward selected serine proteases (GrA, GrB, GrM, GrK,
PR3, and hNE). The reference substrates were as follows: Ac-Ile-Gly-Pro-Arg-ACC for GrA, Ac -Tyr-
Arg-Phe-Lys-ACC for GrK, Ac-Ile-Glu-Pro-Asp-ACC for GrB, Ac-Lys-Val-Pro-Leu-ACC for GrM,
Ac-Glu(O-Bzl)-Lys(Ac)-Hyp(Bzl)-Nva-ACC for PR3 and Ac-Arg(NO)2-Glu(Bzl)-Oic-Abu-ACC for hNE.
Substrates were placed in a 96-well plate at a concentration of 67 µM and treated with optimal
and emission wavelengths. Data present the average of 2 replicates as adjusted RFU/s.
Figure S3. Detection of active GrA in NK92 cells.
(also on this page, place not known: S K15 hNE) . Ac-Tyr- -Arg(NO)2-Glu(Bzl)-Oic-Abu-ACC ( 89 G rA cell s. reference reference SK15 reference SK15 reference SK15 reference SK15 reference SK15 0 50 100 substrate turnover, %RFU/s PR3GrMGrBGrK hNEGrA SK15 selectivity) […]

[2] = molecular target: T2, GrA (Homo sapiens, UniProt P12544); experiment: Steady-state Michaelis–Menten kinetics of fluorogenic ACC substrates with GrA; assay type: biochemical; conditions: GrA 93 nM, 37 °C, ACC fluorescence 355/460 nm
T2 construct: made in house; host or cells: Pichia pastoris
T2 sequence (P12544 29-262): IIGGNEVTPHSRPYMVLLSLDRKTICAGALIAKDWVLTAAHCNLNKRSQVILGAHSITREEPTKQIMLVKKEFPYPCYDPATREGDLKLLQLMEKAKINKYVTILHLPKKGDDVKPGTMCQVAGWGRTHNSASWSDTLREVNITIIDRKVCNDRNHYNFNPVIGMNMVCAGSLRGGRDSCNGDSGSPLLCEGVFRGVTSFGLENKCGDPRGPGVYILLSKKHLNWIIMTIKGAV
Excerpt: All chemical and biological reagents were purchased from commercial suppliers and used without further purification. The following reagents for solid phase peptide synthesis, Rink Amide RA resin (particle size 200–300 mesh, loading 0.74 mmol/g), 2-chlorotrityl chloride resin, Fmoc-protected amino acids, biotin, 1-[bis(dimethylamino)methylene]-1H-1,2,3-triazolo[4,5-b] pyridinium 3-oxid hexafluorophosphate (HATU), piperidine, diisopropylcarbodiimide (DICI), and trifluoroacetic acid (TFA), were purchased from Iris Biotech GmbH (Marktredwitz, Germany); anhydrous N-hydroxybenzotriazole (HOBt, purity >98%) was purchased from Creosauls; 2,4,6-collidine (2,4,6-trimethylpyridine), HPLC pure acetonitrile, and triisopropylsilane (TIPS) were purchased from Sigma-Aldrich (Poznan, Poland); and N,N-diisopropylethylamie (DIPEA) was purchased from VWR International (Gdansk, Poland). Solvents such as N,N-dimethylformamide (DMF), dichloromethane (DCM), methanol (MeOH), diethyl ether (Et2O), and acetic acid (AcOH) were purchased from Avantor (Gliwice, Poland). Cy5 was purchased from Lumiprobe GmbH (Hannover, Germany). Human neutrophil elastase was purchased from BioCentrum (Kraków, Poland) and proteinase 3 from Athens Research Technology (Athens, USA). Anti-GrA antibody (rabbit, monoclonal, ab209205) was obtained from Abcam (Cambridge, Great Britain). All cell lines were purchased from DSMZ (Braunschweig, Germany) or ATCC (Manassas, USA). All kinetic assays were performed using a Spectra Max Gemini XPS spectrofluorometer (Molecular Devices) on 96-well Corning plates. The parameters of the process were as follows: 37 °C; excitation/emission wavelength, 355/460 nm; cutoff, 455 nm; varying concentrations of substrates and enzyme. All measurements were performed in duplicate, and the data represent the average of these repetitions

[3] = molecular target: T2, GrA; experiment: Second-order inhibition rate constant kobs/I toward GrA, pseudo-first-order conditions; assay type: biochemical; conditions: pseudo-first-order; substrate SK15 10 μM; inhibitor 714–333 nM; GrA 350 nM added; pH 7.5, 37 °C; average of at least three experiments with SD
Procedure: We calculated the apparent second-order rate constants for inhibition (kobs(app)/I) of GrA-mediated SK15I under pseudo first-order conditions by serially diluting the new inhibitor in the range of 714–333 nM with a constant optimal substrate (SK15) concentration of 10 μM (Figure 3B).
The second-order inhibition rate constant (kobs/I expressed in M^–1 s^–1) toward GrA was measured under pseudo-first-order kinetic conditions. Ten microliters of substrate (SK15) was mixed with varying inhibitor or probe concentrations and incubated at 37 °C for 15 min. […] Experiments are presented as the average of at least three experiments with standard deviation.

[4] = system: GrA; experiment: Residual activity assay, GrA preinhibited with SK15I or SK15.5; assay type: biochemical, human; conditions: substrate SK15; preincubation 30 min, 37 °C
Procedure: (§1) We wondered whether the selectivity of our SK15-based molecules for GrA would be maintained by substrate structure modifications, such as replacing ACC with a diphenyl phosphonate warhead and changing the N-terminus from acetyl to the cyanine derivative Cy5.
(§2) As a control, enzymes without inhibitor and probe were tested.

[5] = molecular target: T3, GrK (Homo sapiens, UniProt P49863); experiment: Residual activity assay, GrK; assay type: biochemical; conditions: 488 nM GrK preincubated with 10 μM compound 30 min 37 °C; 200 μM GrKref
T3 construct: made in house; host or cells: Pichia pastoris
T3 sequence (P49863 27-264): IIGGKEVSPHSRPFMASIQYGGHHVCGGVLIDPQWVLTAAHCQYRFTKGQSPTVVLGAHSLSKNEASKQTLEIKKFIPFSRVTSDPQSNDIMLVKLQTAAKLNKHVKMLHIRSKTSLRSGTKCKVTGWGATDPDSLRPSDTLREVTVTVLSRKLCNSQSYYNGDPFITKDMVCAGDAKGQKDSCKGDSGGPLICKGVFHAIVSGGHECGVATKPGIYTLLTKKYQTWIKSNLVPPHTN
Procedure: as §1, §2

[6] = molecular target: T1, GrB; experiment: Residual activity assay, GrB; assay type: biochemical; conditions: 18 nM GrB preincubated with 10 μM compound 30 min 37 °C; 200 μM GrBref
Procedure: as §1, §2

[7] = system: GrM; experiment: Residual activity assay, GrM; assay type: biochemical, human; conditions: 74 nM GrM preincubated with 10 μM compound 30 min 37 °C; substrate Ac-Lys-Val-Pro-Leu-ACC
Procedure: as §1, §2

[8] = system: PR3; experiment: Residual activity assay, PR3; assay type: biochemical; conditions: 3.4 nM PR3 preincubated with 10 μM compound 30 min 37 °C; substrate Ac-Glu(O-Bzl)-Lys(Ac)-Hyp(Bzl)-Nva-ACC
Procedure: as §1, §2

[9] = system: hNE; experiment: Residual activity assay, hNE; assay type: biochemical, human; conditions: 3.3 nM hNE preincubated with 10 μM compound 30 min 37 °C; substrate Ac-Arg(NO)2-Glu(Bzl)-Oic-Abu-ACC
Procedure: as §1, §2

[10] = molecular target: T4, GrA (Homo sapiens, UniProt P12544); experiment: In-gel detection of recombinant GrA with SK15.5 (SDS-PAGE); assay type: binding; conditions: GrA forms 250 nM, probe 500 nM, 1 h, Western blot
T4 construct: made in house; host or cells: Pichia pastoris
T4 sequence (P12544 27-262): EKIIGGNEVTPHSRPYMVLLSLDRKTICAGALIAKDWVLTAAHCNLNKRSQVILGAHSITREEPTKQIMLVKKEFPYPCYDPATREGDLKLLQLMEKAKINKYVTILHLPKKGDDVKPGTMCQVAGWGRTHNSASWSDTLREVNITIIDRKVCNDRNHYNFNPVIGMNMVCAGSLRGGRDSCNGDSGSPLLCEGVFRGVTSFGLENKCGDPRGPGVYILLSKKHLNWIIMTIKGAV
Procedure: (§3) Next, we tested the utility of our fluorescent probe for the in-gel detection of active GrA in test samples. […] We then ran a simple SDS-PAGE assay to detect labeled GrA (Figure 4A). […] In our hands, the probe bound to the enzyme, as indicated by the fluorescent 35 kDa species, after the minimal incubation time (5 min). […] The optimal concentration was 500 nM (strong signal) (Figure 4B).
(§4) (A) Incubation time of SK15.5 with enzyme optimization. […] (D) GrA in-gel detection in NK92 cell lysates. […] The results are representative of at least 2 replicates.
(§5) In contrast to the closely related GrB, GrH, GrM, and GrK, GrA is a homodimer formed by stable disulfide-linked subunits.[26] Since the subunits are oriented in opposite directions, the surrounding area may form an exosite.[26]
(§6) In the incubation time optimization assay, the enzyme and probe concentrations were constant (250 nM), and the incubation time ranged from 0 to 120 min. […] Enzyme was incubated with probe in a volume of 80 μL, followed by the reduction with 40 μL of 3 × SDS/DTT for 5 min at 95 °C. Samples were centrifuged (3 min, 4500g), and 40 μL of each sample was run on 4–12% Bis-Tris 10-well gels (Invitrogen). The first well was loaded with 2 μL of the protein marker PageRuler Plus Prestained Protein Ladder (Thermo Scientific). Electrophoresis was conducted at 165 V for 37 min at room temperature. […] Total sample volume was 80 μL, to which 40 μL of 3× SDS/DTT was added and boiled for 5 min at 95 °C. Samples were centrifuged (3 min, 4500g), and 40 μL of each sample was run on 4–12% Bis-Tris 10-well gels (Invitrogen). Each form of the enzyme without SK15.5 and probe itself were run as controls. The first well was loaded with 2 μL of protein marker PageRuler Plus Prestained Protein Ladder (Thermo Scientific). Electrophoresis and membrane transfer were conducted in the same manner as above.

[11] = molecular target: T2, GrA; experiment: as above; assay type: binding; conditions: GrA 250 nM, 37 °C
Procedure: as §3, §4, §5, §6

[12] = system: GrA in NK92 cell lysates; conditions: lysates 1 × 10^7 cells/mL, probe 250 nM to 2 μM, 1 h, 37 °C
[13] = system: human GrA; experiment: P1 library screening (individual substrates Ac-Ile-Ser-Pro-P1-ACC) with GrA; conditions: relative to best P1 residue (100%); substrates at the same concentration; fluorescence 355/460 nm

T1 sequence (P10144 21-247): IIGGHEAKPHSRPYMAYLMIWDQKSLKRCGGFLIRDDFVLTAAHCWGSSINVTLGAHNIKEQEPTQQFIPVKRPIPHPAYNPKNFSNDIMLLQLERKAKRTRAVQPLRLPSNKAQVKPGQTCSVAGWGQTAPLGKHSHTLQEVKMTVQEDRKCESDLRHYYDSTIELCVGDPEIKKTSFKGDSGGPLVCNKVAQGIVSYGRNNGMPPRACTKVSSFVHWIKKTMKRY

Ac-IG[Oic]R-{ACC} (SMILES CC[C@H](C)[C@H](NC(C)=O)C(=O)NCC(=O)N1[C@H](C(=O)N[C@@H](CCCNC(=N)N)C(=O)Nc2ccc3c(CC(N)=O)cc(=O)oc3c2)C[C@@H]2CCCC[C@@H]21) [SK17]
hydrolysis by GrB (in words) [1]: significantly hydrolyzed

Ac-Ile-Gly-Pro-Arg-ACC (Ac-IGPR-{ACC}; SMILES CC[C@H](C)[C@H](NC(C)=O)C(=O)NCC(=O)N1CCC[C@H]1C(=O)N[C@@H](CCCNC(=N)N)C(=O)Nc1ccc2c(CC(N)=O)cc(=O)oc2c1) [SK7, reference compound]
kcat ([2]; assay buffer pH 7.5): 0.035 ± 0.00076 s⁻¹
kcat/KM ([2]; assay buffer pH 7.5): 78 ± 6.60 s^–1 M^–1 and 78 ± 6.6 M^–1 s^–1
Km ([2]; substrate 1000–7.81 μM, 50 mM Tris, 100 mM NaCl, 5 mM CaCl2, 0.01% Tween-20, pH 7.5, Michaelis–Menten nonlinear regression, duplicate): 450 ± 1.3 µM

Ac-Met(O)-Gly-Hyp(Bzl)-3-Abz-ACC [SK13]
hydrolysis by GrB (in words) [1]: significantly hydrolyzed

Cy5-Ahx-Tic-Gly-Oic-Arg^P(OPh)2 [SK15.5]
kobs/I [3]: 3521 ± 296 M^–1 s^–1
residual GrA activity after preinhibition (in words) [4]: completely blocked
inhibition of GrK [5]: 3%
inhibition of GrB [6]: almost no inhibition effect
inhibition of GrM [7]: almost no inhibition effect
inhibition of PR3 [8]: almost no inhibition effect
inhibition of hNE [9]: almost no inhibition effect
probe labeling of GrA zymogen (in words) [10]: no signal was detected in the zymogen
optimal probe concentration for GrA labeling (strong signal) ([11]; 30 min, SDS-PAGE): 500 nM
detection limit, minimum probe concentration needed for GrA labeling ([11]; 30 min, SDS-PAGE, estimated): approximately 50 nM
incubation time after which labeling no longer increases (maximal labeling) ([11]; probe 250 nM): 30 min
minimal incubation time after which probe-bound GrA is detected ([11]; probe 250 nM): 5 min
selectivity of labeling in NK92 cell lysates (in words) [12]: did not observe any additional bands

L-Arg
relative GrA activity on P1 library substrate Ac-Ile-Ser-Pro-P1-ACC [13]: 92%

L-Asp
relative GrA activity on P1 library substrate Ac-Ile-Ser-Pro-P1-ACC [13]: 17.8%

L-Lys
relative GrA activity on P1 library substrate Ac-Ile-Ser-Pro-P1-ACC [13]: 21%
